# Data taken from patent US11135234B2, “Effective aminoglycoside antibiotic for multidrug-resistant bacteria” (MICROBIAL CHEMISTRY RESEARCH FOUNDATION, priority 2015, dated 2021).
# Legend:
# S. aureus RN4220 = assay: MIC, agar plate dilution method, S. aureus RN4220; type: cell-based, Staphylococcus aureus; details: for minimal inhibitory concentration (MIC): S. aureus RN4220, Sensitive bacterium; for MIC: Staphylococcus aureus, RN4220, S. aureus RN4220, Sensitive bacterium, read-out: minimal inhibitory concentration (MIC)
# Description: (§1) As for the representative compounds of a new aminoglycoside antibiotic of the present invention described in Examples, the minimal inhibitory concentration (MIC, μg/mL) was measured for various assay strains of bacteria using an agar plate dilution method in accordance with the method described in the Japan Society of Chemotherapy.
# S. aureus RN4220/pMS520 = assay: MIC, agar plate dilution method, S. aureus RN4220/pMS520; type: cell-based, Staphylococcus aureus; details: for minimal inhibitory concentration (MIC): S. aureus RN4220/pMS520, MRSA; for MIC: Staphylococcus aureus, MRSA, read-out: minimal inhibitory concentration (MIC), S. aureus RN4220/pMS520, MRSA
# Description: as §1
# S. aureus MF490 = assay: MIC, agar plate dilution method, S. aureus MF490; type: cell-based, Staphylococcus aureus; details: for minimal inhibitory concentration (MIC): S. aureus MF490, MRSA; for MIC: Staphylococcus aureus, MRSA, read-out: minimal inhibitory concentration (MIC)
# Description: as §1
# E. faecium ATCC19434 = assay: MIC, agar plate dilution method, E. faecium ATCC19434; type: cell-based, Enterococcus faecium; details: for minimal inhibitory concentration (MIC): E. faecium ATCC19434; for MIC: Enterococcus faecium, ATCC19434, E. faecium ATCC19434, read-out: minimal inhibitory concentration (MIC)
# Description: as §1
# E. coli JM109/pMW218 = assay: MIC, agar plate dilution method, E. coli JM109/pMW218; type: cell-based, Escherichia coli; details: for minimal inhibitory concentration (MIC): E. coli JM109/pMW218, Sensitive bacterium; for MIC: Escherichia coli, JM109/PMW218, E. coli JM109/pMW218, Sensitive bacterium, read-out: minimal inhibitory concentration (MIC)
# Description: as §1
# [1] = system: K. pneumoniae ATCC BAA-1705; assay: MIC, agar plate dilution method, K. pneumoniae ATCC BAA-1705; type: cell-based, Klebsiella pneumoniae; details: for minimal inhibitory concentration (MIC): K. pneumoniae ATCC BAA-1705, KPC-producing strain; for MIC: Klebsiella pneumoniae, ATCCBAA1705, K. pneumoniae ATCC BAA-1705, KPC-producing strain, read-out: minimal inhibitory concentration (MIC)
# Description: as §1
# [2] = system: K. pneumoniae ATCC BAA-2146; assay: MIC, agar plate dilution method, K. pneumoniae ATCC BAA-2146; type: cell-based, Klebsiella pneumoniae; details: for minimal inhibitory concentration (MIC): K. pneumoniae ATCC BAA-2146, NDM-producing strain; for MIC: Klebsiella pneumoniae, ATCCBAA2146, K. pneumoniae ATCC BAA-2146, NDM-producing strain, read-out: minimal inhibitory concentration (MIC)
# Description: as §1
# [3] = system: A. baumannii ATCC BAA-1710; assay: MIC, agar plate dilution method, A. baumannii ATCC BAA-1710; type: cell-based, Acinetobacter baumannii; details: for minimal inhibitory concentration (MIC): A. baumannii ATCC BAA-1710, MDRA; for MIC: Acinetobacter baumannii, ATCCBAA1710, A. baumannii ATCC BAA-1710, MDRA, read-out: minimal inhibitory concentration (MIC)
# Description: as §1
# S. marcescens TH-0447 = assay: MIC, agar plate dilution method, S. marcescens TH-0447; type: cell-based, Serratia marcescens; details: for minimal inhibitory concentration (MIC): S. marcescens TH-0447, AMK-resistant; for MIC: Serratia marcescens, TH0447, S. marcescens TH-0447, AMK-resistant, read-out: minimal inhibitory concentration (MIC)
# Description: as §1
# S. marcescens GN6944 = assay: MIC, agar plate dilution method, S. marcescens GN6944; type: cell-based, Serratia marcescens; details: S. marcescens GN6944, GM-resistant; for MIC: Serratia marcescens, read-out: minimal inhibitory concentration (MIC)
# Description: as §1
# P. aeruginosa PAO1 = assay: MIC, agar plate dilution method, P. aeruginosa PAO1; type: cell-based, Pseudomonas aeruginosa; details: for minimal inhibitory concentration (MIC): P. aeruginosa PAO1, Sensitive bacterium; for MIC: Pseudomonas aeruginosa, PAO1, P. aeruginosa PAO1, Sensitive bacterium, read-out: minimal inhibitory concentration (MIC)
# Description: as §1
# P. aeruginosa PAO1/GN315 = assay: MIC, agar plate dilution method, P. aeruginosa PAO1/GN315; type: cell-based, Pseudomonas aeruginosa; details: for minimal inhibitory concentration (MIC): P. aeruginosa PAO1/GN315, AMK-resistant; for MIC: Pseudomonas aeruginosa, read-out: minimal inhibitory concentration (MIC), P. aeruginosa PAO1/GN315, AMK-resistant
# Description: as §1
# P. aeruginosa MSC17707 = assay: MIC, agar plate dilution method, P. aeruginosa MSC17707; type: cell-based, Pseudomonas aeruginosa; details: for minimal inhibitory concentration (MIC): P. aeruginosa MSC17707, AMK-resistant; for MIC: Pseudomonas aeruginosa, MSC17707, P. aeruginosa MSC17707, AMK-resistant, read-out: minimal inhibitory concentration (MIC)
# Description: as §1
# P. aeruginosa MSC01035 = assay: MIC, agar plate dilution method, P. aeruginosa MSC01035; type: cell-based, Pseudomonas aeruginosa; details: P. aeruginosa MSC01035, ABK-resistant; for MIC: Pseudomonas aeruginosa, read-out: minimal inhibitory concentration (MIC)
# Description: as §1
Molecule,minimal inhibitory concentration (MIC) (S. aureus RN4220),minimal inhibitory concentration (MIC) (S. aureus RN4220/pMS520),minimal inhibitory concentration (MIC) (S. aureus MF490),minimal inhibitory concentration (MIC) (E. faecium ATCC19434),minimal inhibitory concentration (MIC) (E. coli JM109/pMW218),minimal inhibitory concentration (MIC) [1],minimal inhibitory concentration (MIC) (P. aeruginosa MSC17707),MIC (S. aureus RN4220),MIC (S. aureus RN4220/pMS520),MIC (S. aureus MF490),MIC (E. faecium ATCC19434),MIC (E. coli JM109/pMW218),MIC [1],MIC [2],MIC [3],MIC (S. marcescens TH-0447),MIC (S. marcescens GN6944),MIC (P. aeruginosa PAO1),MIC (P. aeruginosa PAO1/GN315),MIC (P. aeruginosa MSC01035),other results
"4″-N-(trans-1,4-4-aminocyclohexyl)apramycin [Compound A4-g]",4 µg/mL,4 µg/mL,16 µg/mL,32 µg/mL,2 µg/mL,2 µg/mL,32 µg/mL,,,,,,,,,,,,,,minimal inhibitory concentration (MIC) [2]: 2 µg/mL; minimal inhibitory concentration (MIC) [3]: 32 µg/mL; minimal inhibitory concentration (MIC) (S. marcescens TH-0447): 16 µg/mL; minimal inhibitory concentration (MIC) (S. marcescens GN6944): 16 µg/mL; minimal inhibitory concentration (MIC) (P. aeruginosa PAO1): 16 µg/mL; minimal inhibitory concentration (MIC) (P. aeruginosa PAO1/GN315): 16 µg/mL; minimal inhibitory concentration (MIC) (P. aeruginosa MSC01035): 32 µg/mL
"CNC1C(O[C@H]2OC(CO)[C@@H](NC(=O)CN)[C@H](O)C2O)O[C@H]2CC(N)[C@@H](O[C@@H]3C(N)C[C@@H](N)C(O)[C@H]3O)OC2C1O (single isomer, unassigned) [Compound V1-a, 4″-N-glycylapramycin]",4 µg/mL,4 µg/mL,16 µg/mL,32 µg/mL,2 µg/mL,2 µg/mL,8 µg/mL,,,,,,,,,,,,,,minimal inhibitory concentration (MIC) [2]: 2 µg/mL; minimal inhibitory concentration (MIC) [3]: 8 µg/mL; minimal inhibitory concentration (MIC) (S. marcescens TH-0447): 8 µg/mL; minimal inhibitory concentration (MIC) (S. marcescens GN6944): 8 µg/mL; minimal inhibitory concentration (MIC) (P. aeruginosa PAO1): 4 µg/mL; minimal inhibitory concentration (MIC) (P. aeruginosa PAO1/GN315): 4 µg/mL; minimal inhibitory concentration (MIC) (P. aeruginosa MSC01035): 4 µg/mL
"CNC1C(O[C@H]2OC(CO)[C@@H](NC(=O)CN)[C@H](O)C2O)O[C@H]2CC(N)[C@@H](O[C@@H]3C(N)C[C@@H](N)C(O)[C@H]3O)OC2C1O (single isomer, unassigned) [Compound V1-i, 5-epi-4″-N-glycylapramycin]",,,,,,,2 µg/mL,2 µg/mL,2 µg/mL,8 µg/mL,16 µg/mL,1 µg/mL,2 µg/mL,1 µg/mL,4 µg/mL,8 µg/mL,8 µg/mL,2 µg/mL,4 µg/mL,4 µg/mL,
"NCC[C@H](O)C(=O)N[C@@H]1C[C@H](N)[C@@H](O[C@H]2O[C@H](CN)CC[C@H]2N)[C@H](O)[C@H]1O[C@H]1O[C@H](CO)[C@@H](O)[C@H](N)[C@H]1O [ABK, arbekacin, reference compound]",,,,,,,,1 µg/mL,1 µg/mL,64 µg/mL,8 µg/mL,0.5 µg/mL,16 µg/mL,> 64 µg/mL,32 µg/mL,64 µg/mL,8 µg/mL,2 µg/mL,8 µg/mL,> 64 µg/mL,MIC (P. aeruginosa MSC17707): 4 µg/mL
"NCC[C@H](O)C(=O)N[C@@H]1C[C@H](N)[C@@H](O[C@H]2O[C@H](CN)[C@@H](O)[C@H](O)[C@H]2O)[C@H](O)[C@H]1O[C@H]1O[C@H](CO)[C@@H](O)[C@H](N)[C@H]1O [AMK, amikacin, reference compound]",,,,,,,,2 µg/mL,64 µg/mL,> 64 µg/mL,32 µg/mL,0.5 µg/mL,32 µg/mL,> 64 µg/mL,64 µg/mL,> 64 µg/mL,8 µg/mL,2 µg/mL,64 µg/mL,> 64 µg/mL,MIC (P. aeruginosa MSC17707): 32 µg/mL
